Patent publication US20060046009A1, “Optical disk” (TDK Corporation, priority 2004, published 2006)

Experiment: Solubility of the cyanine dyes in 2,2,3,3-tetrafluoro-1-propanol
Type: physicochemical
Conditions: in 2,2,3,3-tetrafluoro-1-propanol (TFP)
Text: FIGS. 1 and 2 are schematic fragmentary sectional views showing the vicinities of grooves in the optical disks according to Example 1 (counter ion: PF6^−) and Comparative Example 2 (counter ion: I^−), respectively. […] Thus, the optical disk in Example 1 has more uniform dye

| SMILES | Solubility in TFP |
| --- | --- |
| CN1/C(=C/C=C/C2=[N+](C)c3ccc4ccccc4c3C2(C)Cc2ccccc2)C(C)(C)c2c1ccc1ccccc21 (centres unmarked) [Example 2] | 8 mg/mL |
| CN1/C(=C/C=C/C2=[N+](C)c3c(ccc4ccccc34)C2(C)C)C(C)(C)c2cc(Cl)ccc21 [Example 1] | 15 mg/mL |
